In PMC10092094 (Chemmedchem, 2022):

Columns and labels:
OGG1 [1] = molecular target: T1, OGG1 (Homo sapiens, UniProt O15527); test: Differential scanning fluorimetry; assay type: binding
OGG1 [2] = molecular target: T1, OGG1; test: biochemical
[3] = IC50 (CI95), biochemical inhibition, confidence interval 95 in parentheses

T1 sequence (O15527 whole entry): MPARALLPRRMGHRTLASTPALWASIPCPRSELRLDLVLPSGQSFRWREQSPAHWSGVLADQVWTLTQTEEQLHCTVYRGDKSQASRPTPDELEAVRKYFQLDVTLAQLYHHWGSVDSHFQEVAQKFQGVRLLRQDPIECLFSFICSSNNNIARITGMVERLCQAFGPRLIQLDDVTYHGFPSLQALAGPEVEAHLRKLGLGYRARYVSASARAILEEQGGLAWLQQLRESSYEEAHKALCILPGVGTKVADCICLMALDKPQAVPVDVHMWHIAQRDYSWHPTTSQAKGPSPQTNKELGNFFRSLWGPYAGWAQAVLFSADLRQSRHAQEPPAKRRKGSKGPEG

DSF stabilization (ΔT) (OGG1 [1]) [K]	IC50 (OGG1 [2]; [3]) [µM]	IC50 (OGG1 [2]; IC50 of HTS hit, concentration-response of screening hits) [µM]	IC50 (OGG1 [2]; IC50, biochemical inhibition, single replicate) [µM]	Compound
2.4	35.1			O=C(Nc1cccc(F)c1)N1CCC(n2c(=O)[nH]c3cc(Cl)ccc32)CC1 [Compound 12, 4‐(5‐chloro‐2‐oxo‐2,3‐dihydro‐1H‐1,3‐benzodiazol‐1‐yl)‐N‐(3‐fluorophenyl)piperidine‐1‐carboxamide]
3.9	2.2			O=C(Nc1ccc(I)cc1)N1CCC(n2c(=O)[nH]c3c(F)cccc32)CC1 [Compound 24, 4‐(4‐fluoro‐2‐oxo‐2,3‐dihydro‐1H‐1,3‐benzodiazol‐1‐yl)‐N‐(4‐iodophenyl)piperidine‐1‐carboxamide]
5.1	4.4			COc1ccc(NC(=O)N2CCC(n3c(=O)[nH]c4c(Br)cccc43)CC2)cc1OC [Compound 56, 4‐(4‐bromo‐2‐oxo‐2,3‐dihydro‐1H‐1,3‐benzodiazol‐1‐yl)‐N‐(3,4‐dimethoxyphenyl)piperidine‐1‐carboxamide]
4.2	0.35			O=C(Nc1ccc(Cl)cc1)N1CCC(n2c(=O)[nH]c3c(Br)cccc32)CC1 [Compound 43, 4‐(4‐bromo‐2‐oxo‐2,3‐dihydro‐1H‐1,3‐benzodiazol‐1‐yl)‐N‐(4‐chlorophenyl)piperidine‐1‐carboxamide]
2.4	2.9			O=C(Nc1ccc(I)cc1)N1CCC(n2c(=O)[nH]c3ccccc32)CC1 [Compound 8, N‐(4‐iodophenyl)‐4‐(2‐oxo‐2,3‐dihydro‐1H‐1,3‐benzodiazol‐1‐yl)piperidine‐1‐carboxamide]
3.1	0.44			O=C(Nc1ccc(Cl)c(Cl)c1)N1CCC(n2c(=O)[nH]c3c(Br)cccc32)CC1 [Compound 53, 4‐(4‐bromo‐2‐oxo‐2,3‐dihydro‐1H‐1,3‐benzodiazol‐1‐yl)‐N‐(3,4‐dichlorophenyl)piperidine‐1‐carboxamide]
2.1	7			O=C(Nc1ccc(Br)cc1)N1CCC(n2c(=O)[nH]c3ccccc32)CC1 [Compound 7, N‐(4‐bromophenyl)‐4‐(2‐oxo‐2,3‐dihydro‐1H‐1,3‐benzodiazol‐1‐yl)piperidine‐1‐carboxamide]
4.6	5.5	10		O=C(Nc1ccc(Cl)cc1)N1CCC(n2c(=O)[nH]c3ccccc32)CC1 [Compound 6, N‐(4‐chlorophenyl)‐4‐(2‐oxo‐2,3‐dihydro‐1H‐1,3‐benzodiazol‐1‐yl)piperidine‐1‐carboxamide]
4.2	0.19			O=C(Nc1ccc(Br)cc1)N1CCC(n2c(=O)[nH]c3c(Br)cccc32)CC1 [Compound 44, 4‐(4‐bromo‐2‐oxo‐2,3‐dihydro‐1H‐1,3‐benzodiazol‐1‐yl)‐N‐(4‐bromophenyl)piperidine‐1‐carboxamide]
5.1	2.1			Cc1ccc(NC(=O)N2CCC(n3c(=O)[nH]c4c(Br)cccc43)CC2)cc1 [Compound 45, 4‐(4‐bromo‐2‐oxo‐2,3‐dihydro‐1H‐1,3‐benzodiazol‐1‐yl)‐N‐(4‐methylphenyl)piperidine‐1‐carboxamide]
1.8	0.2			COc1cc(NC(=O)N2CCC(n3c(=O)[nH]c4c(Br)cccc43)CC2)ccc1C [Compound 55, 4‐(4‐bromo‐2‐oxo‐2,3‐dihydro‐1H‐1,3‐benzodiazol‐1‐yl)‐N‐(3‐methoxy‐4‐methylphenyl)piperidine‐1‐carboxamide]
0.0	46			CC(C)(C)c1ccc(NC(=O)N2CCC(n3c(=O)[nH]c4c(Br)cccc43)CC2)cc1 [Compound 46, 4‐(4‐bromo‐2‐oxo‐2,3‐dihydro‐1H‐1,3‐benzodiazol‐1‐yl)‐N‐(4‐tert‐butylphenyl)piperidine‐1‐carboxamide]
3.8	0.63			Cc1cccc2c1[nH]c(=O)n2C1CCN(C(=O)Nc2ccc(I)cc2)CC1 [Compound 20, 4‐(4‐methyl‐2‐oxo‐2,3‐dihydro‐1H‐1,3‐benzodiazol‐1‐yl)‐N‐(4‐iodophenyl)piperidine‐1‐carboxamide]
4.2	0.91			COc1cccc2c1[nH]c(=O)n2C1CCN(C(=O)Nc2ccc(I)cc2)CC1 [Compound 27, 4‐(4‐methoxy‐2‐oxo‐2,3‐dihydro‐1H‐1,3‐benzodiazol‐1‐yl)‐N‐(4‐iodophenyl)piperidine‐1‐carboxamide]
4.7	2.9			O=C(Nc1ccc(Cl)c(Cl)c1)N1CCC(n2c(=O)[nH]c3ccccc32)CC1 [Compound 9, N‐(3,4‐dichlorophenyl)‐4‐(2‐oxo‐2,3‐dihydro‐1H‐1,3‐benzodiazol‐1‐yl)piperidine‐1‐carboxamide]
3.8	1.7			Cc1ccc2c(c1)[nH]c(=O)n2C1CCN(C(=O)Nc2ccc(I)cc2)CC1 [Compound 21, 4‐(5‐methyl‐2‐oxo‐2,3‐dihydro‐1H‐1,3‐benzodiazol‐1‐yl)‐N‐(4‐iodophenyl)piperidine‐1‐carboxamide]
3.8	2			O=C(Nc1ccc(Cl)cc1)N1CCC(n2c(=O)[nH]c3cc(Cl)ccc32)CC1 [Compound 16, 4‐(5‐chloro‐2‐oxo‐2,3‐dihydro‐1H‐1,3‐benzodiazol‐1‐yl)‐N‐(4‐chlorophenyl)piperidine‐1‐carboxamide]
4.1			3.1	COc1ccc(NC(=O)N2CCC(n3c(=O)[nH]c4c(Br)cccc43)CC2)cc1 [Compound 47, 4‐(4‐bromo‐2‐oxo‐2,3‐dihydro‐1H‐1,3‐benzodiazol‐1‐yl)‐N‐(4‐methoxyphenyl)piperidine‐1‐carboxamide]
